These are literature values, as cited in patent US20090269405A1, “ENZYME MEDIATED DELIVERY SYSTEM” (Appian Labs, LLC, priority 2008, published 2009).

Like-named read-outs stand apart in the source and are kept apart here.

The conditions of series [1]: chronic oral, 100 mg bid.

For the molecule `CNC(=O)[C@@H](NC(=O)[C@H](CC(C)C)[C@H](O)C(=O)NO)C(C)(C)C` [Marimastat], the “onset of musculoskeletal toxicity (severe events)” value (25 mg daily) is listed as 199 days and the “onset of musculoskeletal toxicity (severe events)” value (75 mg twice daily) is 56 days.

As to `C[C@H]1c2cccc(O)c2C(=O)C2=C(O)[C@]3(O)C(=O)C(C(N)=O)=C(O)[C@@H](N(C)C)[C@@H]3[C@@H](O)[C@@H]21` [doxycycline], in series [1], the “patients who developed abdominal aortic aneurysms” value is listed as “five out of 33”.
